Experimental data reported in ChEMBL document CHEMBL1156829 (Proc Natl Acad Sci U S A, 2008).

Key:
Plasmodium falciparum [1] = test: NOVARTIS: Inhibition of Plasmodium falciparum 3D7 (drug-susceptible) proliferation in erythrocyte-based infection assay; format: functional, organism-based; settings: Plasmodium falciparum, 3D7
Plasmodium falciparum [2] = test: NOVARTIS: Inhibition of Plasmodium falciparum W2 (drug-resistant) proliferation in erythrocyte-based infection assay; format: functional, organism-based; settings: Plasmodium falciparum, W2; read-out: EC50
[3] = NOVARTIS: Cytotoxicity against human hepatocellular carcinoma cell line (Huh7); format: toxicity, cell-based, Huh-7; settings: Huh7 cells (hepatocellular carcinoma cell line)

| Compound | EC50 (Plasmodium falciparum [1]) | EC50 (Plasmodium falciparum [2]) | CC50 [3] |
| --- | --- | --- | --- |
| O=C(COc1ccccc1)Nc1nccs1 | > 1250 nM | 1260 nM | > 10000 nM |
| Cc1cc(N2CCN(C)CC2)nc2ccc(NC(=O)Nc3ccccc3Cl)cc12 | 3100 nM | 2060 nM | > 100000 nM |
| O=C(COc1ccc(Cl)cc1)N1CCCn2cccc2C1c1ccc(Cl)cc1 (configuration not stated) | 631 nM | 108 nM | > 10000 nM |
| Cc1ccc(CN2C3CCCC2CC(NC(=O)Nc2cccc(F)c2)C3)cc1 (configuration not stated) | 898 nM | 695 nM | > 10000 nM |
| Oc1ccc(-c2ccccc2)cc1CN1CCCCCC1 | 242 nM | 53.7 nM | 67400 nM |
| NS(=O)(=O)c1ccc(N/C=C/C(=O)c2ccc(Cl)s2)cc1 | 1830 nM | > 1250 nM | > 8690 nM |
| Cc1ccc(NC(=O)c2cc(C(=O)c3cc(Cl)ccc3O)cn(-c3ccc(C)c(C)c3)c2=O)cc1C | 8070 nM | 6900 nM | > 100000 nM |
| COc1cccc(NC(=O)Cn2c(C)c(C(C)=O)c3ccccc32)c1 | 1760 nM | 713 nM | > 100000 nM |
| O=C(Nc1ccc2c(c1)CN(C1CCSCC1)CC2)C1(c2ccccc2)CC1 | > 12500 nM | > 5530 nM | > 100000 nM |
| Cc1cnc(NC(=O)Nc2ccc(-c3ccc(NC(=O)Nc4ncc(C)s4)c(C)c3)cc2C)s1 | 34.1 nM | 76.7 nM | > 10000 nM |
| CCC(C)(C)n1nnnc1C(c1cc2ccc(C)cc2[nH]c1=O)N1CCN(c2ccccc2)CC1 (configuration not stated) | 453 nM | 61.4 nM | > 100000 nM |
| Cc1cc(=O)oc2c1ccc1oc(C(=O)c3ccccc3)c(C)c12 | 441 nM | 392 nM | > 100000 nM |
| CCOC(=O)c1cn(CC)c2cc(N(C)CCc3ccc(OC)c(OC)c3)c(F)cc2c1=O | 103 nM | 26.7 nM | > 100000 nM |
| CC(C)NC(=O)CN(C)C1c2ccccc2CCc2ccccc21 | > 1380 nM | 254 nM | > 9180 nM |
| COCCNC(=O)[C@@H]1C[C@@H](Sc2nc3ccccc3[nH]2)CN1Cc1ccc2ccccc2c1 | 638 nM | 135 nM | > 100000 nM |
| Cc1ccccc1OCc1nnc(SCC(=O)Nc2ccc([N+](=O)[O-])cc2)n1C | > 1250 nM | 26.7 nM | > 10000 nM |
| COC(=O)c1c(NC(=O)c2cc3ccccc3oc2=O)sc2c1CCC(C)C2 (configuration not stated) | > 12500 nM | > 7460 nM | > 100000 nM |
| CCCn1nc(Oc2nc(NCC)cc(OC)n2)ccc1=O | 384 nM | 677 nM | > 100000 nM |
| O=C(Cn1c2ccccc2c(=O)c2ccccc21)Nc1ccc(Cl)cc1C(=O)c1ccccc1 | 817 nM | 925 nM | > 100000 nM |
| OC(CN1CCN(CC(O)Cn2c3ccccc3c3cc(Br)ccc32)CC1)Cn1c2ccccc2c2ccccc21 (configuration not stated) | > 1260 nM | 576 nM | > 10000 nM |
| O=C(NCCc1nc(-c2cccnc2)n[nH]1)C12CC3CC(CC(C3)C1)C2 | > 1250 nM | 581 nM | > 10000 nM |
| O=C(c1cc2nc(-c3ccccc3)cc(C(F)(F)F)n2n1)N1CCN(Cc2ccccc2)CC1 | 2920 nM | 4590 nM | > 100000 nM |
| Cc1sc2nc3c4ccccc4c(NCCCN(C)C)nn3c(=O)c2c1C | 6600 nM | 2300 nM | 60000 nM |

| Compound | EC50 (Plasmodium falciparum [1]) | EC50 (Plasmodium falciparum [2]) | CC50 [3] |
| --- | --- | --- | --- |
| CCOC(=O)N1CCN(C(=O)c2cnc3ccc(C)cn3c2=O)CC1 | > 355 nM | > 1660 nM | > 10000 nM |
| Oc1cccc(C=Nc2ccccc2)c1O | 360 nM | 435 nM | > 10300 nM |
| Cc1c2cnn(CC(=O)O)c(=O)c2c(C)n1Cc1cccc(Cl)c1 | > 12500 nM | 789 nM | > 100000 nM |
| O=C(NCCCCNc1ccnc2cc(Cl)ccc12)c1ccc(Br)cc1 | 218 nM | 291 nM | > 8730 nM |
| C=CC1CN2CCC1CC2[C@H](O)c1ccnc2ccc(O)cc12 (some centres not stated) | 404 nM | 5720 nM | > 100000 nM |
| Cc1ccc(C)c(NC(=O)C2CCCN(c3nnc(N4CCCC4=O)s3)C2)c1 (configuration not stated) | > 5750 nM | 154 nM | > 100000 nM |
| Cc1nc(N)sc1C(=O)NN=Cc1cccc(Br)c1 | > 1250 nM | 819 nM | > 10000 nM |
| CCCCCc1ccc(-c2cn3nc(CCCCC)sc3n2)cc1 | > 921 nM | > 1250 nM | > 10000 nM |
| CCN1/C(=C/c2sc3ccccc3[n+]2CC)C=Cc2cc(NC(C)=O)ccc21 | 255 nM | 225 nM | > 10000 nM |
| CCCCC(=O)Nc1ccccc1-c1nnn(CC(=O)Nc2ccc3c(c2)OCCO3)n1 | > 1140 nM | > 1670 nM | > 10000 nM |
| COc1ccc2nc3cc(Cl)ccc3c(NCCCN(CCCN)CCCCN)c2c1 | 78.6 nM | 22.3 nM | > 10000 nM |
| Cc1cccc(-c2cc3nc(C)c(C)c(O)n3n2)c1 | > 9720 nM | 7540 nM | > 100000 nM |
| C=CCNC(=O)c1cc(OCc2ccccc2)c(OCc2ccccc2)c(OCc2ccccc2)c1 | 10800 nM | 9180 nM | > 100000 nM |
| COc1ccccc1N(CN1C(=O)c2ccc(Br)cc2C1=O)C(C)=O | > 1250 nM | > 171 nM | > 10000 nM |
| COc1cc(-c2nc(-c3ccc(Sc4ccccc4)cc3)c(-c3ccccc3)[nH]2)cc(OC)c1O | 1280 nM | 1640 nM | 64300 nM |
| O=C(Nc1cc(Cl)cc(Cl)c1)C1C2C=CC3(O2)C1C(=O)N(CCC1=CCCCC1)C3C(=O)NC1CCCCC1 (configuration not stated) | > 11000 nM | 1710 nM | > 100000 nM |
| COc1ccccc1N1CCN([C@@H]2CCN(Cc3cccnc3)C[C@@H]2CCC(=O)N2CCCC2)CC1 | 1080 nM | 810 nM | > 10000 nM |
| CC(C(=O)NCCCN)N(Cc1ccccc1)S(C)(=O)=O (configuration not stated) | > 1250 nM | 16.2 nM | > 10000 nM |
| Cc1ccc(C=NNC(=O)c2nnn(-c3nonc3N)c2-c2ccc([N+](=O)[O-])cc2)cc1 | 204 nM | 503 nM | > 73000 nM |
| C=CCSc1nc2sc3c(c2c(=O)n1-c1ccccc1)CCN(C)C3 | 632 nM | 228 nM | > 100000 nM |
| COc1ccc(CC(=O)NCCCCNc2ccnc3cc(Cl)ccc23)cc1 | 550 nM | 345 nM | 4500 nM |
| CC(=O)N(C1=C(N2CCOCC2)C(=O)c2ccccc2C1=O)c1ccc(Cl)c(Cl)c1 | 220 nM | 191 nM | 12200 nM |
| Cc1ccc(NC(C)C(=O)Nc2ccc(C#N)cc2)cc1S(=O)(=O)N1CCCCC1 (configuration not stated) | 406 nM | 446 nM | 59500 nM |

| Compound | EC50 (Plasmodium falciparum [1]) | EC50 (Plasmodium falciparum [2]) | CC50 [3] |
| --- | --- | --- | --- |
| CCC(c1nc2ccccc2c(=O)n1-c1cccc(C)c1)N(CCc1ccccc1)C(=O)Nc1c(C(C)C)cccc1C(C)C (configuration not stated) | 1070 nM | 1100 nM | > 8510 nM |
| Cc1noc(C)c1S(=O)(=O)N(Cc1ccccc1)CC(O)CN1CCC(NC(=O)c2cccc3ccccc23)C1 (configuration not stated) | 127 nM | < 6.52 nM | > 10000 nM |
| CCCCCOC(=O)C1=C(C)Nc2ncnn2C1c1cccc([N+](=O)[O-])c1 (configuration not stated) | > 988 nM | > 1250 nM | > 10000 nM |
| COc1ccc(NC(=O)/C=C/c2ccccc2Cl)cc1 | > 1250 nM | > 1140 nM | > 10000 nM |
| C=C1C=CN(Cc2ccccc2)c2ccc(OC)cc21 | 451 nM | 330 nM | > 10000 nM |
| CSc1c(C(=O)Nc2ccc(Br)cc2)ccc2c1C(=O)c1ccccc1C2=O | > 1250 nM | > 640 nM | > 10000 nM |
| CCOc1ccccc1C=NNc1nc(Nc2ccccc2)nc(Nc2ccccc2)n1 | 2050 nM | > 1250 nM | > 10000 nM |
| COc1cc2c(Nc3ccc(Br)cc3F)ncnc2cc1OCC1CCN(C)CC1 [VANDETANIB] | 1920 nM | 1600 nM | 37200 nM |
| Nc1c(C(=O)Nc2ccc(F)cc2)sc2nc3c(c(-c4cccs4)c12)CCCCC3 | 937 nM | 388 nM | > 100000 nM |
| CCCCCc1ccc(C(=O)Oc2ccccc2-c2nc3cc(C)ccn3c2NC(C)(C)CC(C)(C)C)cc1 | 739 nM | 93.4 nM | > 10000 nM |
| CCOc1cc(C(Nc2cc(C)ccn2)c2ccc3cccnc3c2O)ccc1OCc1ccccc1 (configuration not stated) | > 1340 nM | 1030 nM | > 10000 nM |
| COc1ccc(-c2n(CC(=O)OC3CC(C)CCC3C(C)C)c3ccccc3[n+]2C)cc1 (configuration not stated) | 391 nM | 233 nM | 13400 nM |
| CCOc1ccc(Nc2nc(NCc3ccccc3)c3ccccc3n2)cc1 | 88.2 nM | 170 nM | 5670 nM |
| O=C1NC(=S)N/C1=C/c1ccc(C(F)(F)F)cc1 | > 1030 nM | > 1110 nM | > 2880 nM |
| COc1cccc(C(=O)C[n+]2cc(-c3ccc(Cl)cc3)n3c2CCC3)c1 | 1740 nM | 975 nM | > 100000 nM |
| CC(=O)N(C1=C(N2CCCCC2)C(=O)c2ccccc2C1=O)c1cccc(Cl)c1 | 239 nM | 375 nM | 32000 nM |
| Cc1ccc(C(=O)NCCCCNc2ccnc3cc(Cl)ccc23)cc1[N+](=O)[O-] | 222 nM | 308 nM | > 10000 nM |
| Oc1ccc(-c2cccnc2)cc1CNCC1CC2C=CC1C21CC1 (configuration not stated) | 835 nM | < 23.3 nM | > 10000 nM |
| COc1cc(NC(=O)Cc2ccccc2OC)cc(OC)c1 | > 1690 nM | > 386 nM | > 10000 nM |
| O=C(Cc1c(F)cccc1Cl)Nc1cc(C(=O)N2CCN(Cc3ccccc3)CC2)ccc1N1CC2CC(C1)c1cccc(=O)n1C2 (configuration not stated) | 67.2 nM | 30 nM | > 100000 nM |
| Cc1cccc(N2C(=O)C3C(C2=O)C2(c4ccccc4)C(=O)C3(c3ccccc3)C(c3ccccc3)=C2c2ccccc2)c1 (configuration not stated) | 1640 nM | 700 nM | > 100000 nM |
| COc1ccc2nc(C)cc(Nc3ccc(Oc4ccc5ccccc5c4Cl)c(Cl)c3)c2c1 | 100 nM | 491 nM | 64100 nM |
| COc1nncc(-c2cnnc(SC)n2)n1 | 237 nM | 219 nM | 28400 nM |
